Assays:
[1] = biological target: T1, YFP—C-TDP-43 aggregates (Homo sapiens, UniProt Q13148); assay: YFP-C-TDP-43 aggregates in transgenic C. elegans (confocal imaging); format: in vivo; conditions: 5 μM I-1b; compared to DMSO control or MG132-treated group
T1 construct: IW33 [Psnb-l:C-TDP-43219-414-YFP (iwIs22)]; expressed in transfected cells; host or cells: transgenic C. elegans strain IW33 (pan-neuronal snb-1 promoter)
Experimental: The YFP—C-TDP-43 transgenic strains of C. elegans generated in this study were IW33 [Psnb-l:C-TDP-43219-414-YFP (iwIs22)]. The strains of nematodes were maintained with standard procedure and grown at 20° C. as previously described (Zhang, T. et al. Hum. Mol. Genet. 2011, 20 (10), 1952). For all assays, the transgenic young two-day (80 hours) adults were used. For larvae synchronization, the eggs were isolated by lysing gravid adult worms with freshly prepared bleaching solution (0.5 mL 5 M NaOH with 1 mL bleach) and incubated in S buffer (recipe) for overnight. For drug treatments, compound I-1b and/or DMSO were solely or along with MG132 applied to fresh NGM plates prior to installing the synchronized C. elegans. The body bends of the corresponding treatment in a duration of 30 seconds of the various strains were documented through SMZ800N stereomicroscope equipped with a CCD camera (Nikon). A body bend was counted as the head of C. elegans travels across the mid-body in 1×PBS buffer. Then, the bending videos of C. elegans were analyzed by ImageJ with the wrMTrck plugin (Nussbaum-Krammer, C. I. et al. J. Vis. Exp. 2015, (95), 52321). […]
As YFP—C-TDP-43 readily forms cytosolic aggregates in nervous system, the YFP—C-TDP-43 aggregates both in the neuron processes and neuron bodies of the ventral cord were monitored. […]

[2] = biological target: T2, eGFP-C-TDP-43 oligomeric intermediates (Homo sapiens, UniProt Q13148); assay: Size-exclusion chromatography and slot blot with oligomer-specific antibody A11; format: cell-based, mouse; conditions: lysate of Neuro-2a cells overexpressing eGFP-C-TDP-43, 48 h
T2 construct: expressed in transfected cells; host or cells: Neuro-2a (mouse neuroblastoma)

[3] = biological target: T3, eGFP-C-TDP-43 (Homo sapiens, UniProt Q13148); assay: SDS-PAGE dose dependency of eGFP-C-TDP-43 degradation; format: cell-based, mouse; conditions: Neuro-2a cells
T3 construct: expressed in transfected cells; host or cells: Neuro-2a (mouse neuroblastoma)
Experimental: Proteins were separated using 12% Tris-glycine SDS-PAGE. Proteins were transferred onto PVDF membrane (Millipore). Blots were blocked with 5% bovine serum albumin (BSA, Sigma) in 0.1% PBST for at least 1 hour. After blocking, blots were subjected to incubation with the primary antibodies TDP-43 (C-terminal) (1:1,000, Proteintech), TDP-43 (1:1,000, Abcam), p-TDP-43 (pS409/410) (1:1,000, Cosmo Bio), GFP (1:1,000, Abcam), All (1:1,000, Invitrogen), GAPDH (1:10,000, GeneTex), or β-actin (1:10,000, GeneTex) in 2% BSA and incubated overnight at 4° C. on a shaker. After washed with PBST, the blots were further incubated with HRP-labelled secondary antibodies (1:3,000, GeneTex) at room temperature for another 1 hour. The blots were washed and developed with electrochemiluminescence (ECL, Millipore). The signals were visualized with luminescence (iBright™ FL1000 instrument, Invitrogen).
Based on the amount of j-actin (internal control) on NC membrane, overexpression of eGFP-C-TDP-43 did induce a significant amount of C-TDP-43 species (mock control, 1.08±0.31, the black bar in FIG. 1, (B)) comparing with that in blank control of Neuro-2a cells (0.38±0.08, the white bar in FIG. 1, (B)). […]

T1 sequence (Q13148 219-414 limits assumed): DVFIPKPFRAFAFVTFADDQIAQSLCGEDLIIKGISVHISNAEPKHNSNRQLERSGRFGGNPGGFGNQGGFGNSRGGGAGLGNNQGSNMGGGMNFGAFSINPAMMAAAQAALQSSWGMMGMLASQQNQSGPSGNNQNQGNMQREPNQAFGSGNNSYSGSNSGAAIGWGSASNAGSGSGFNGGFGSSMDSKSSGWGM
T2 sequence (Q13148 208-414 limits assumed): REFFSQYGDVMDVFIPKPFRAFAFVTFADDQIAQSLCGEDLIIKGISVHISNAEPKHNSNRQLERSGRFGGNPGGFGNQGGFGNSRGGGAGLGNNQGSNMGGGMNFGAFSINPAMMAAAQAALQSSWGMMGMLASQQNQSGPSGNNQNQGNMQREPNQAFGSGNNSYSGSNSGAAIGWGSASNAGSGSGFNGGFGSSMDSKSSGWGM
T3 sequence (Q13148 208-414 limits assumed): as above

A11 signal intensity in SEC fractions 9-11 (oligomeric intermediates) [2]: significantly reduced
SMILES: CN(C)c1ccc(-c2nc3ccc(OCCOCCOCCNc4cccc5c4C(=O)N(C4CCC(=O)NC4=O)C5=O)cc3s2)cc1 (stereo not drawn) [I-1b, 4-((2-(2-(2-((2-(4-(dimethylamino)phenyl)benzo[d]thiazol-6-yl)oxy)ethoxy)ethoxy)ethyl)amino)-2-(2,6-dioxopiperidin-3-yl)isoindoline-1,3-dione]
YFP—C-TDP-43 aggregates in neuron processes and neuron bodies of the ventral cord [1]: fewer aggregates with reduced fluorescence intensity
degradation of eGFP-C-TDP-43, dose dependency [3]: degraded eGFP-C-TDP-43 in a dose-dependent manner
